Test results as given in US6369069B1 (Aventis Pharma Deutschland GmbH, priority 1998, dated 2002).

test system: Na^+-dependent Cl^−/HCO3^− exchanger (NCBE); assay: Inhibition of the Na+-dependent Cl−/HCO3− exchanger (NCBE) in human endothelial cells (pHi recovery, BCECF fluorescence, FLIPR); format: cell-based; details: 10 μM
Experimental: Inhibition of the Na^+-dependent Cl^−/HCO3^− exchanger (NCBE) in human endothelial cells
Human endothelial cells (ECV-304) were detached form culture flasks with the aid of trypsin/EDTA buffer (0.05/0.02% in phosphate buffer) and, after centrifugation (100 g, 5 min), taken up in a buffered saline solution (mmol/l: 115 NaCl, 20 NH4Cl, 5 KCl, 1 CaCl2, 1 MgSO4, 20 N-(2-hydroxyethyl)-piperazine-N[…]-2-ethanesulfonic acid (HEPES), 5 glucose and 1 g/l of bovine serum albumin; pH 7.4). This cell suspension was incubated at 37 °C. for 20 min with 5 μM BCECF acetoxymethyl ester. The cells were then washed and resuspended in a sodium- and bicarbonate-free buffer solution (mmol/l: 5 HEPES, 133.8 choline chloride, 4.7 KCl, 1.25 MgCl2, 0.97 K2HPO4, 0.23 KH2PO4, 5 glucose; pH 7.4).
For the subsequent fluorescence measurement in the FLIPR (Fluorescent Imaging Plate Reader), 100 μl of this cell suspension in each case containing 20,000 cells were added by pipette per well of a 96-well microtiter plate and this microtiter plate was centrifuged (100 g, 5 min). In the FLIPR, 100 μl of buffer solution in each case were then removed from a further prepared microtiter plate and added by pipette to each of the 96 wells of the measuring plate. In this case, for a 100% control, i.e. a recovery of the intracellular pH (pHi) by means of the NCBE, a bicarbonate- and sodium-containing buffer solution (mmol/l: 5 HEPES, 93.8 NaCl, 40 NaHCO3, 4.7 KCl, 1.25 CaCl2, 1.25 MgCl2, 0.97 Na2HPO4, 0.23 NaH2PO4, 5 glucose; pH 7.4) which contained 50 μM HOE 642 was used. For a 0% control, i.e. no pHi recovery at all, a bicarbonate-free, sodium-containing buffer solution (mmol/l: 5 HEPES, 133.8 NaCl, 4.7 KCl, 1.25 CaCl2, 1.25 MgCl2, 0.97 Na2HPO4, 0.23 NaH2PO4, 5 glucose; pH 7.4) to which 50 μM HOE 642 were also added was employed. The compounds according to the invention were added in various concentrations of the sodium- and bicarbonate-containing solution. After addition of the buffer solutions to the dye-loaded acidified cells situated in the measuring plate, the increase in the fluorescence intensity which corresponded to an increase in the pHi was determined in each well of the microtiter plate.
The kinetics were in this case recorded at 35° C. over a period of 2 minutes. The increase in the fluorescence intensities for different concentrations of the compounds according to the invention was related to the two controls and from this the inhibitory action of the substances was determined.

SMILES	Residual activity % of the NCBE at 10 μM [%]
CCCC(=O)N(CCO)Cc1ccc(-c2ccccc2S(=O)(=O)NC#N)cc1 [Example 2]	78.1
N#CNS(=O)(=O)c1ccccc1-c1ccc(CN(Cc2ccc3c(c2)OCO3)C(=O)c2cc3ccccc3s2)cc1 [Example 77]	81.8
COc1cccc(CN(Cc2ccc(-c3ccccc3S(=O)(=O)NC#N)cc2)C(=O)Cc2ccccc2)c1 [Example 126]	53.7
COc1cc(C(=O)N(Cc2ccccc2)Cc2ccc(-c3ccccc3S(=O)(=O)NC#N)cc2)cc(OC)c1OC [Example 49]	75.8
N#CNS(=O)(=O)c1ccccc1-c1ccc(CN(Cc2ccc(Cl)cc2)C(=O)Cc2cccs2)cc1 [Example 28]	95.2
N#CNS(=O)(=O)c1ccccc1-c1ccc(CN(Cc2ccc(F)cc2)C(=O)Cc2cccs2)cc1 [Example 147]	53.2
COc1cccc(CN(Cc2ccc(-c3ccccc3S(=O)(=O)NC#N)cc2)C(=O)c2cccs2)c1 [Example 86]	57.0
CC(=O)N(CCOc1ccccc1)Cc1ccc(-c2ccccc2S(=O)(=O)NC#N)cc1 [Example 180]	70.9
N#CNS(=O)(=O)c1ccccc1-c1ccc(CN(Cc2ccncc2)C(=O)Cc2cccs2)cc1 [Example 146]	69.8
N#CNS(=O)(=O)c1ccccc1-c1ccc(CN(Cc2ccc(Cl)cc2Cl)C(=O)CCS(=O)(=O)c2ccccc2)cc1 [Example 279]	90.5
N#CNS(=O)(=O)c1ccccc1-c1ccc(CN(Cc2ccc(Cl)cc2Cl)C(=O)CCc2cccs2)cc1 [Example 288]	63.1
COc1cccc(CN(Cc2ccc(-c3ccccc3S(=O)(=O)NC#N)cc2)C(=O)NC(C)C)c1 [Example 302]	80.4
N#CNS(=O)(=O)c1ccccc1-c1ccc(CN(Cc2ccc(Cl)cc2Cl)C(=O)Cc2ccccc2Br)cc1 [Example 276]	36.8
N#CNS(=O)(=O)c1ccccc1-c1ccc(CN(CCOc2ccccc2)C(=O)COc2ccccc2)cc1 [Example 166]	57.9
C#CCN(Cc1ccc(-c2ccccc2S(=O)(=O)NC#N)cc1)C(=O)C(NC(=O)OCc1ccccc1)c1ccccc1 (centres unmarked) [Example 246]	65.0
N#CNS(=O)(=O)c1ccccc1-c1ccc(CN(Cc2cccs2)C(=O)NC2CCCCC2)cc1 [Example 296]	31.7
C[C@H](c1ccccc1)N(Cc1ccc(-c2ccccc2S(=O)(=O)NC#N)cc1)C(=O)c1ccccc1Cl [Example 108]	87.7
CN(Cc1ccc(-c2ccccc2S(=O)(=O)NC#N)cc1)C(=O)C(=O)c1cccs1 [Example 198]	51.1
COCCC(=O)N(Cc1ccc(-c2ccccc2S(=O)(=O)NC#N)cc1)Cc1cccc(Cl)c1Cl [Example 319]	38.0
COc1ccc(CC(=O)N(Cc2ccc(-c3ccccc3S(=O)(=O)NC#N)cc2)CC2CC2)cc1 [Example 175]	93.2
CN(Cc1ccc(-c2ccccc2S(=O)(=O)NC#N)cc1)C(=O)Cc1csc2ccccc12 [Example 214]	44.3

SMILES	Residual activity % of the NCBE at 10 μM [%]
N#CNS(=O)(=O)c1ccccc1-c1ccc(CN(CCCc2ccccc2)C(=O)CCCCc2cccs2)cc1 [Example 218]	87.1
COC(=O)C(c1ccccc1)N(Cc1ccc(-c2ccccc2S(=O)(=O)NC#N)cc1)C(=O)Cc1ccccc1Br (centres unmarked) [Example 274]	73.6
CN(C)c1ccc(CN(Cc2ccc(-c3ccccc3S(=O)(=O)NC#N)cc2)C(=O)Cc2cccs2)cc1 [Example 140]	54.2
Cc1ccc(CN(Cc2ccc(-c3ccccc3S(=O)(=O)NC#N)cc2)C(=O)Cc2ccccc2)cc1 [Example 125]	63.6
COc1cc(CN(Cc2ccc(-c3ccccc3S(=O)(=O)NC#N)cc2)C(=O)Cc2cccs2)cc(OC)c1OC [Example 145]	39.6
N#CNS(=O)(=O)c1ccccc1-c1ccc(CN(Cc2cccc(Cl)c2)C(=O)NC2CCCCC2)cc1 [Example 308]	32.1
COCCN(Cc1ccc(-c2ccccc2S(=O)(=O)NC#N)cc1)C(=O)CCCCc1cccs1 [Example 219]	82.5
N#CNS(=O)(=O)c1ccccc1-c1ccc(CN(Cc2ccc(Cl)c(Cl)c2)C(=O)CCC2CCCCC2)cc1 [Example 264]	74.3
Cc1cccc(CN(Cc2ccc(-c3ccccc3S(=O)(=O)NC#N)cc2)C(=O)CC2CCCC2)c1 [Example 361]	29.4
N#CNS(=O)(=O)c1ccccc1-c1ccc(CN(Cc2ccc(Cl)cc2)C(=O)c2ccccc2Cl)cc1 [Example 58]	59.4
N#CNS(=O)(=O)c1ccccc1-c1ccc(CN(CCO)C(=O)c2ccccc2Cl)cc1 [Example 56]	69.0
N#CNS(=O)(=O)c1ccccc1-c1ccc(CN(CCCc2ccccc2)C(=O)Cc2cccs2)cc1 [Example 236]	35.1
CN(Cc1ccc(-c2ccccc2S(=O)(=O)NC#N)cc1)C(=O)Cc1ccsc1 [Example 230]	68.6
C[C@@H](c1ccccc1)N(Cc1ccc(-c2ccccc2S(=O)(=O)NC#N)cc1)C(=O)c1cc2ccccc2s1 [Example 73]	61.0
N#CNS(=O)(=O)c1ccccc1-c1ccc(CN(C(=O)CCC2CCCCC2)C2CCCCC2)cc1 [Example 12]	92.9
CC(=O)N(Cc1ccc(-c2ccccc2S(=O)(=O)NC#N)cc1)CC1CC1 [Example 182]	74.9
Cc1ccc(C(=O)N(CCO)Cc2ccc(-c3ccccc3S(=O)(=O)NC#N)cc2)cc1 [Example 68]	94.4
COc1ccc(CCN(Cc2ccc(-c3ccccc3S(=O)(=O)NC#N)cc2)C(=O)c2ccccc2F)cc1 [Example 100]	94.1
N#CNS(=O)(=O)c1ccccc1-c1ccc(CN(Cc2ccc3c(c2)OCO3)C(=O)c2ccccc2Cl)cc1 [Example 107]	96.4
N#CNS(=O)(=O)c1ccccc1-c1ccc(CN(Cc2nc3ccccc3[nH]2)C(=O)Cc2ccsc2)cc1 [Example 232]	62.6
CCN(Cc1ccc(-c2ccccc2S(=O)(=O)NC#N)cc1)C(=O)C(=O)c1cccs1 [Example 199]	54.7

same assay, conditions: 10 μM compound; human endothelial cells (ECV-304); related to 100% and 0% pHi recovery controls

SMILES	Residual activity of the NCBE at 10 μM [%]
N#CNS(=O)(=O)c1ccccc1-c1ccc(CN(Cc2ccccc2)S(=O)(=O)c2cccs2)c(Cl)c1 [Example 556, 4′-{[Benzyl-(2-thiophen-2-sulfonyl)amino]methyl}-3′-chlorobiphenyl-2-sulfonylcyanamide]	0
CS(=O)(=O)c1cc(-c2ccccc2S(=O)(=O)NC#N)ccc1CN(Cc1ccccc1)C(=O)Cc1cccs1 [Example 555, 4′-{[Benzyl-(2-thiophen-2-ylacetyl)amino]methyl}-3′-methylsulfonyl-biphenyl-2-sulfonylcyanamide]	31

same assay, conditions: compound at 10 μM; R(3) to R(7) hydrogen series

SMILES	Residual activity % of the NCBE at 10 μM [%]
Cc1ccc(C(C)C(=O)N(Cc2ccccc2)Cc2ccc(-c3ccccc3S(=O)(=O)NC#N)cc2)s1 (centres unmarked) [Example 481]	62.6
CC(C(=O)N(Cc1ccc(-c2ccccc2S(=O)(=O)NC#N)cc1)CC1(c2ccccc2)CCCC1)c1cccs1 (centres unmarked) [Example 393]	16.7

same assay, conditions: compound at 10 μM; sub-table with R7 substituent

SMILES	Residual activity % of the NCBE at 10 μM [%]
Cc1ccc(-c2ccc(CN(Cc3cccc4ccccc34)C(=O)Cc3cccs3)cc2)c(S(=O)(=O)NC#N)c1 [Example 514]	74.9
Cc1ccc(-c2ccc(CN(Cc3cccc(Cl)c3Cl)C(=O)Cc3cccs3)cc2)c(S(=O)(=O)NC#N)c1 [Example 520]	85.9
Cc1ccc(-c2ccc(CN(CCc3ccccc3)C(=O)Cc3cccs3)cc2)c(S(=O)(=O)NC#N)c1 [Example 518]	93.5
Cc1ccc(-c2ccc(CN(Cc3cccc(Cl)c3Cl)C(=O)Cc3ccsc3)cc2)c(S(=O)(=O)NC#N)c1 [Example 544]	82.2
